The nature of one series: CHI Log D procedure. Type of series: physicochemical. Conditions: for chromatographic logD: pH 7.4, CHI Log D.
The target in series [1] is T1, beta-catenin/TCF4 engagement (Homo sapiens, UniProt P35222).
T1 construct: expressed in transfected cells; host or cells: HEK293
T1 sequence (P35222 1-781): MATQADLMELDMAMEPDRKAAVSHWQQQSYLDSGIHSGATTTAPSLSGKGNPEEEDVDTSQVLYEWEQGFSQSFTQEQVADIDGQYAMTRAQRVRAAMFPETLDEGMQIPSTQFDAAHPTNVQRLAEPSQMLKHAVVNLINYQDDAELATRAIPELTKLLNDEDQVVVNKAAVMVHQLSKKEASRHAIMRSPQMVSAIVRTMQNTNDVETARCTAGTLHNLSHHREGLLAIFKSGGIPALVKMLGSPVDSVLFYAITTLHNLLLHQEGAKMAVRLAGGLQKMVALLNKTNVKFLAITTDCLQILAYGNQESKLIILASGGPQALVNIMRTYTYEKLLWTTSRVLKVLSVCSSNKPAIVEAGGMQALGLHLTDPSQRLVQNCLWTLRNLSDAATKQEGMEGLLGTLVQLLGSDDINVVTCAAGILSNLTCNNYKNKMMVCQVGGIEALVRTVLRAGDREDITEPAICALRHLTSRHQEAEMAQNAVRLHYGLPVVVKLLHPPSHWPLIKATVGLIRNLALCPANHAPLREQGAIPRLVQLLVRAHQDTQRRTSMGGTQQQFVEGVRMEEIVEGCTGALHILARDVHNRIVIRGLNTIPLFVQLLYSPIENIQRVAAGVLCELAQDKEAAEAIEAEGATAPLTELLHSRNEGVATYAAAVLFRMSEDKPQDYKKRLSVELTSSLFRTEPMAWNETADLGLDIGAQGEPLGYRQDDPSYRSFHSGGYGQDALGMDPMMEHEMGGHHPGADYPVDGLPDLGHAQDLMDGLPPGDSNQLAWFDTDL
In words: Nano-BRET target engagement assay (B-cat-Halo & TCF4-Luc in HEK293 cells). The series is classed as cell-based. Conditions: read-out: NanoBRET Abs IC50. On the technique in general: BRET reads energy transfer from a luciferase to a nearby fluorophore.

In series [2] the target is T2, full-length beta-Catenin (Uniprot ID P35222) (Homo sapiens, UniProt P35222).
T2 construct: 10 nM full-length beta-Catenin (Uniprot ID P35222)
T2 sequence (P35222 1-781): T1 sequence (P35222 1-781)
In words: Fluorescence polarization IC50 (beta-catenin / 5FAM-TCF4 10-53 competition). Type of series: binding. Conditions: fluorescence polarization; read-out: beta-Catenin FP IC50. In general terms: Polarisation of emitted light reports the rotation of a fluorescent probe.

One may read the chromatographic logD as lipophilicity estimated from chromatographic retention. As to `CC(=O)N[C@@H](Cc1ccccc1)C(=O)N[C@@H](CC(=O)O)C(=O)N[C@@H](C)C(=O)N[C@]1(C)CCN(C)C(=O)OCC=CCCCCC[C@@](C)(C(=O)N[C@@H](Cc2ccccc2)C(=O)N[C@@H](Cc2c[nH]c3ccccc23)C(=O)N[C@@H](CCC(N)=O)C(N)=O)NC(=O)[C@H](C(C)C)NC(=O)[C@H](Cc2ccccc2)NC(=O)[C@H](C)NC(=O)[C@H](C)NC(=O)[C@H](CC(=O)O)NC(=O)[C@H](CC(=O)O)NC1=O` (single isomer, unassigned) [I-1, Ac-Phe-Asp-Ala-RdN-Asp-Asp-Ala-Ala-Phe-Val-S7-Phe-Trp-Gln-NH2], the chromatographic logD in the series “CHI Log D procedure” amounted to 1.27.
Turning to `CC(=O)N[C@@H](Cc1ccccc1)C(=O)N[C@@H](CC(=O)O)C(=O)N[C@@H](C)C(=O)N[C@]1(C)CCN(C)C(=O)OCC=CCCCCC[C@@](C)(C(=O)N[C@@H](Cc2ccccc2)C(=O)N[C@@H](Cc2c[nH]c3ccccc23)C(=O)N[C@@H](CCC(N)=O)C(N)=O)NC(=O)[C@H](C(C)C)NC(=O)[C@H](Cc2ccccc2)NC(=O)[C@H](C)NC(=O)[C@H](C)NC(=O)[C@H](CC(=O)O)NC(=O)[C@H](CC(=O)O)NC1=O` (single isomer, unassigned) [I-2, Ac-Phe-Asp-Ala-RdN-Asp-Asp-Ala-Ala-Phe-Val-S7-Phe-Trp-Gln-NH2], the “CHI Log D” value in the series “CHI Log D procedure” (pH 7.4) was found to be 1.246.
Compound `CC(=O)N[C@@H](Cc1ccccc1)C(=O)N[C@@H](CC(=O)O)C(=O)N[C@@H](C)C(=O)N[C@]1(C)CCCCCCC=CCOC(=O)N2CC[C@@](C(=O)N[C@@H](Cc3ccccc3)C(=O)N[C@@H](Cc3c[nH]c4ccccc34)C(=O)N[C@@H](CCC(N)=O)C(N)=O)(C2)NC(=O)[C@H](C(C)C)NC(=O)[C@H](Cc2ccccc2)NC(=O)[C@H](C)NC(=O)[C@H](C)NC(=O)[C@H](CCCC(=O)O)NC(=O)[C@H](CC(=O)O)NC1=O` (single isomer, unassigned) [I-5, Ac-Phe-Asp-Ala-R8-Asp-Aad-Ala-Ala-Phe-Val-PyrS-Phe-Trp-Gln-NH2] returned a chromatographic logD in the series “CHI Log D procedure” of 1.33.
By IC50 is commonly meant the concentration that inhibits the measured activity by half. For the compound `CC(=O)N1CCC[C@]12CC=CCCCC1(CCCC=CCCCCOC(=O)N3CCC(C(=O)N[C@@H](Cc4ccccc4C(F)(F)F)C(=O)N[C@@H](Cc4csc5ccccc45)C(=O)N[C@@H](CCC(N)=O)C(N)=O)(CC3)NC(=O)[C@H](CC(C)C)NC(=O)[C@H](Cc3ccccc3)NC(=O)[C@H](C)NC(=O)[C@H](C)NC(=O)[C@H](Cc3cccc(C(=O)O)c3)NC(=O)[C@H](CC(=O)O)NC1=O)NC(=O)[C@H](CC(C)(C)C)NC(=O)[C@H](CC(=O)O)NC2=O` (stereo partly drawn) [I-2583, Ac-PL3-Asp-Npg-B5-Asp-3COOHF-Ala-Ala-Phe-Leu-SPip3-2F3MeF-BztA-Gln-NH2], the IC50 in series [1] was more than 20000 nM; in series [2], 224 nM.
The matching figures for `CC(=O)N1CCC[C@]12CC=CCCCC1(CCCC=CCCCOC(=O)N3CCC(C(=O)N[C@@H](Cc4ccsc4)C(=O)N[C@@H](Cc4csc5ccccc45)C(=O)N[C@@H](CCC(N)=O)C(N)=O)(CC3)NC(=O)[C@H](CC(C)C)NC(=O)[C@H](Cc3ccccc3)NC(=O)[C@H](C)NC(=O)[C@H](C)NC(=O)[C@H](Cc3cccc(C(=O)O)c3)NC(=O)[C@H](CC(=O)O)NC1=O)NC(=O)[C@H](CC(C)(C)C)NC(=O)[C@H](CC(=O)O)NC2=O` (stereo partly drawn) [I-2589, Ac-PL3-Asp-Npg-B5-Asp-3COOHF-Ala-Ala-Phe-Leu-SPip2-3Thi-BztA-Gln-NH2]: 15200 nM and 25 nM.
The matching figures for `CC(=O)N1CCC[C@]12CC=CCCCC1(CCCC=CCCCCOC(=O)N3CCC(C(=O)N[C@@H](Cc4ccsc4)C(=O)N[C@@H](Cc4csc5ccccc45)C(=O)N[C@@H](CCC(N)=O)C(N)=O)(CC3)NC(=O)[C@H](CC(C)C)NC(=O)[C@H](Cc3ccccc3)NC(=O)[C@H](C)NC(=O)[C@H](C)NC(=O)[C@H](Cc3cccc(C(=O)O)c3)NC(=O)[C@H](CC(=O)O)NC1=O)NC(=O)[C@H](CC(C)(C)C)NC(=O)[C@H](CC(=O)O)NC2=O` (stereo partly drawn) [I-2590, Ac-PL3-Asp-Npg-B5-Asp-3COOHF-Ala-Ala-Phe-Leu-SPip3-3Thi-BztA-Gln-NH2]: 18900 nM and 25 nM.
The like results for `CC(=O)N1CCC[C@]12CC=CCCCC1(CCCC=CCCCOC(=O)N3CCC(C(=O)N[C@@H](Cc4ccsc4)C(=O)N[C@@H](Cc4csc5ccccc45)C(=O)N[C@@H](C)C(N)=O)(CC3)NC(=O)[C@H](CC(C)C)NC(=O)[C@H](Cc3ccccc3)NC(=O)[C@H](C)NC(=O)[C@H](CCC(N)=O)NC(=O)[C@H](Cc3cccc(C(=O)O)c3)NC(=O)[C@H](CC(=O)O)NC1=O)NC(=O)[C@H](CC(C)(C)C)NC(=O)[C@H](CC(=O)O)NC2=O` (stereo partly drawn) [I-2592, Ac-PL3-Asp-Npg-B5-Asp-3COOHF-Gln-Ala-Phe-Leu-SPip2-3Thi-BztA-Ala-NH2] were, in that order, more than 20000 nM and 37 nM.
`CC(=O)N1CCC[C@]12CC=CCCCC1(CCCC=CCCCOC(=O)N3CCC(C(=O)N[C@@H](Cc4ccsc4)C(=O)N[C@@H](Cc4csc5ccccc45)C(=O)N[C@@H](C)C(N)=O)(CC3)NC(=O)[C@H](CC(C)C)NC(=O)[C@H](Cc3ccccc3)NC(=O)[C@H](C)NC(=O)[C@H](CCC(N)=O)NC(=O)[C@H](Cc3cccc(C(=O)O)c3)NC(=O)[C@H](CC(=O)O)NC1=O)NC(=O)[C@H](CC(C)(C)C)NC(=O)[C@H](CC(=O)O)NC2=O` (stereo partly drawn) [I-2593, Ac-PL3-Asp-Npg-B5-Asp-3COOHF-Gln-Ala-Phe-Leu-SPip2-3Thi-BztA-Ala-NH2]: the IC50 in series [1] amounted to 29400 nM; in series [2], 27 nM.
The matching figures for `CC(=O)N1CCC[C@]12CC1OC1CCCC1(CCCC=CCCCOC(=O)N3CC[C@@](C(=O)N[C@@H](Cc4ccsc4)C(=O)N[C@@H](Cc4csc5ccccc45)C(=O)N[C@@H](CCC(N)=O)C(N)=O)(C3)NC(=O)[C@H](CC(C)C)NC(=O)[C@H](Cc3ccccc3)NC(=O)[C@H](C)NC(=O)[C@H](C)NC(=O)[C@H](CN(CC(=O)O)CC(F)(F)F)NC(=O)[C@H](CC(=O)O)NC1=O)NC(=O)[C@H](CC(C)(C)C)NC(=O)[C@H](CC(=O)O)NC2=O` (stereo partly drawn) [I-2594, Ac-PL3-Asp-Npg-B5-Asp-TfeGA-Ala-Ala-Phe-Leu-PyrS2-3Thi-BztA-Gln-NH2]: more than 20000 nM and 470 nM.
For `CC(=O)N1CCC[C@]12CC1OC1CCCC1(CCCC=CCCCOC(=O)N3CC[C@@](C(=O)N[C@@H](Cc4ccsc4)C(=O)N[C@@H](Cc4csc5ccccc45)C(=O)N[C@@H](CCC(N)=O)C(N)=O)(C3)NC(=O)[C@H](CC(C)C)NC(=O)[C@H](Cc3ccccc3)NC(=O)[C@H](C)NC(=O)[C@H](C)NC(=O)[C@H](CN(CC(=O)O)CC(F)(F)F)NC(=O)[C@H](CC(=O)O)NC1=O)NC(=O)[C@H](CC(C)(C)C)NC(=O)[C@H](CC(=O)O)NC2=O` (stereo partly drawn) [I-2595, Ac-PL3-Asp-Npg-B5-Asp-TfeGA-Ala-Ala-Phe-Leu-PyrS2-3Thi-BztA-Gln-NH2], the IC50 is more than 20000 nM in series [1] and 356 nM in series [2].
The like results for `CC(C)C[C@H](NC(=O)[C@]12CCN(C1)C(=O)OCCCC=CCCCC1(CCCC=CCCC(=O)N3CCC[C@@]3(C)C(=O)N[C@@H](CC(=O)O)C(=O)N1)C(=O)N[C@@H](C)C(=O)N[C@@H](CC(=O)O)C(=O)N[C@@H](CC(=O)O)C(=O)N[C@@H](C)C(=O)N[C@@H](C)C(=O)N[C@@H](Cc1ccccc1)C(=O)N2)C(=O)N[C@@H](Cc1ccsc1)C(=O)N[C@@H](Cc1csc2ccccc12)C(=O)N[C@@H](CCC(N)=O)C(N)=O` (stereo partly drawn) [I-2599, 4pentenyl-MePro-Asp-B5-Ala-Asp-Asp-Ala-Ala-Phe-PyrS2-Leu-3Thi-BztA-Gln-NH2] were, in that order, more than 20000 nM and 234 nM.

The values above are taken from patent US20240116985A1, “STAPLED PEPTIDES AND METHODS THEREOF” (priority 2020, published 2024).
